34 compounds from US9932340B2, “Substituted indoles” (AbbVie Inc., priority 2014, dated 2018) can be followed below.

SUV420H1 enzyme, sequence (Q4FZB7 whole entry): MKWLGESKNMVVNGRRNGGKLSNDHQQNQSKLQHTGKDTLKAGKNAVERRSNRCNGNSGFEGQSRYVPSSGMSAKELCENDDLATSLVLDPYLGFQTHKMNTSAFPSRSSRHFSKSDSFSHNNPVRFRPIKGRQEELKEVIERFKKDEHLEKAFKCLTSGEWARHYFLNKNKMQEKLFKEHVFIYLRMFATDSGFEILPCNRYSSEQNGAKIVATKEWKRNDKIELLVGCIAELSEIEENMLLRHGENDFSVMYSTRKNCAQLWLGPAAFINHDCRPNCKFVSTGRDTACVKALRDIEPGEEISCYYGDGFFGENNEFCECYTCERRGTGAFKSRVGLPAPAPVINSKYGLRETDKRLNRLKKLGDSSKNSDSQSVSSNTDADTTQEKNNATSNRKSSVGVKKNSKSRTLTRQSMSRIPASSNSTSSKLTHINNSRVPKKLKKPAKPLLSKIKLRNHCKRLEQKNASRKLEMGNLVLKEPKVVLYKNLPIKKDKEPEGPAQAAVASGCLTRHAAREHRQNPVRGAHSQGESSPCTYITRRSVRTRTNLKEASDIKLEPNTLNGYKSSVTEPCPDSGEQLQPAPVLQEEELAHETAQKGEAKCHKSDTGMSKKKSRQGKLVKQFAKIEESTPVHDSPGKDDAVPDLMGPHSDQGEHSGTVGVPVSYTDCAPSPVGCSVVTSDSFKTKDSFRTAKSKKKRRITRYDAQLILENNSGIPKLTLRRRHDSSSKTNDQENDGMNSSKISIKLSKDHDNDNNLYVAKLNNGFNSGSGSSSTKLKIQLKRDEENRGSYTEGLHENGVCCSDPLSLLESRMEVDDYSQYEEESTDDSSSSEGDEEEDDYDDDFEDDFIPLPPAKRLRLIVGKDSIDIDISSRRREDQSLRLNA

The target in the test is SUV420H1 enzyme (Homo sapiens, UniProt Q4FZB7). In words: TR-FRET SAH SUV420H1 enzyme inhibition assay. The format is biochemical. To be noted: Histone Peptide H4(8-30)me1 and SAM, overnight at room temp, TR-FRET detection of SAH, read-out: TR-FRET SAH_SUV420H1 IC50. Summed up:
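SUV420H1 (90 nM) preincubated 30 min with compound (3-fold dilutions, 50 to 0.00075 μM), then H4(8-30)me1 peptide 5 nM and SAM 4 nM added, overnight at room temp. SAH product detected by TR-FRET with Tb anti-SAH antibody and Oregon Green-SAH in RIPA buffer, 4 h; IC50 from Hill fit, asymptotes fixed 0-100%.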
Turning to `CC(N)c1cc2cc(Cl)cc(Cn3cnc4c(N)ncnc43)c2[nH]1` (stereo not shown) [Example 88, 9-{[2-(1-aminoethyl)-5-chloro-1H-indol-7-yl]methyl}-9H-purin-6-amine], the IC50 was determined as 1.43 µM.

With `Nc1ncnc2c1ncn2Cc1cc(Cl)cc2cc(CNC(=O)Cc3ccccc3F)[nH]c12` [Example 256, N-({7-[(6-amino-9H-purin-9-yl)methyl]-5-chloro-1H-indol-2-yl}methyl)-2-(2-fluorophenyl)acetamide], the IC50 was more than 50 µM.

In the case of `CNCc1cc2cc(Cl)cc(Cn3cnc4c(N)ncnc43)c2[nH]1` [Example 89, 9-({5-chloro-2-[(methylamino)methyl]-1H-indol-7-yl}methyl)-9H-purin-6-amine], the concentration for half-maximal inhibition (IC50) came to 2.6 µM.

Regarding `Cc1cccc(C)c1CNCc1cc2cc(Cl)cc(Cn3cnc4c(N)ncnc43)c2[nH]1` [Example 290, 9-[(5-chloro-2-{[(2,6-dimethylbenzyl)amino]methyl}-1H-indol-7-yl)methyl]-9H-purin-6-amine], the IC50 amounted to 2.8 µM.

On to `Cc1scnc1C(=O)NCc1cc2cc(Cl)cc(Cn3cnc4c(N)ncnc43)c2[nH]1` [Example 147, N-({7-[(6-amino-9H-purin-9-yl)methyl]-5-chloro-1H-indol-2-yl}methyl)-5-methyl-1,3-thiazole-4-carboxamide], for which the IC50 amounted to 5.79 µM.

For `N#Cc1ccc(C(=O)NCc2cc3cc(C4=CCC(F)(F)CC4)cc(Cn4cnc5c(N)ncnc54)c3[nH]2)c(F)c1` [Example 287, N-({7-[(6-amino-9H-purin-9-yl)methyl]-5-(4,4-difluorocyclohex-1-en-1-yl)-1H-indol-2-yl}methyl)-4-cyano-2-fluorobenzamide], the IC50 was determined as 0.0878 µM.

Regarding `Nc1ncnc2c1ncn2Cc1cc(Cl)cc2cc(CNC(=O)c3ccc4nc(O)sc4c3)[nH]c12` [Example 341], the half-inhibitory concentration (IC50) is 3.03 µM.

Take `Cn1ccc(C(=O)NCc2cc3cc(Cl)cc(Cn4cnc5c(N)ncnc54)c3[nH]2)n1` [Example 151, N-({7-[(6-amino-9H-purin-9-yl)methyl]-5-chloro-1H-indol-2-yl}methyl)-1-methyl-1H-pyrazole-3-carboxamide]: the IC50 is 6.75 µM.

Turning to `CS(=O)(=O)Nc1ccc(-c2ccc(Cn3cnc4c(N)ncnc43)c3[nH]c(CN)cc23)cc1` [Example 85, N-(4-{2-(aminomethyl)-7-[(6-amino-9H-purin-9-yl)methyl]-1H-indol-4-yl}phenyl)methanesulfonamide], the half-maximal inhibitory concentration (IC50) was 0.605 µM.

For `NCc1cc2ccc(Cl)c(Cn3cnc4c(N)ncnc43)c2[nH]1` [Example 58, 9-{[2-(aminomethyl)-6-chloro-1H-indol-7-yl]methyl}-9H-purin-6-amine], the IC50 is 7.88 µM.

`Nc1ncnc2c1ncn2Cc1cc(Cl)cc2cc(CNC(=O)c3ccccc3C(=O)N3CCCCC3)[nH]c12` [Example 324, N-({7-[(6-amino-9H-purin-9-yl)methyl]-5-chloro-1H-indol-2-yl}methyl)-2-(piperidin-1-ylcarbonyl)benzamide]: the half-maximal inhibitory concentration (IC50) was determined as 12.5 µM.

Turning to `Cn1cnc2cc(C(=O)NCc3cc4cc(Cl)cc(Cn5cnc6c(N)ncnc65)c4[nH]3)ccc21` [Example 361, N-({7-[(6-amino-9H-purin-9-yl)methyl]-5-chloro-1H-indol-2-yl}methyl)-1-methyl-1H-benzimidazole-5-carboxamide], the IC50 is 2.15 µM.

Take `Cc1cccc(CC(=O)NCc2cc3cc(Cl)cc(Cn4cnc5c(N)ncnc54)c3[nH]2)c1` [Example 293, N-({7-[(6-amino-9H-purin-9-yl)methyl]-5-chloro-1H-indol-2-yl}methyl)-2-(3-methylphenyl)acetamide]: the half-maximal inhibitory concentration (IC50) was 20.5 µM.

On to `Cc1nc2cc(C(=O)NCc3cc4cc(Cl)cc(Cn5cnc6c(N)ncnc65)c4[nH]3)ccc2[nH]1` [Example 363, N-({7-[(6-amino-9H-purin-9-yl)methyl]-5-chloro-1H-indol-2-yl}methyl)-2-methyl-1H-benzimidazole-5-carboxamide], for which the half-maximal inhibitory concentration (IC50) amounted to 4.3 µM.

Turning to `Nc1ncnc2c1ncn2Cc1cc(Cl)cc2cc(CNC(=O)c3c(O)cccc3F)[nH]c12` [Example 229, N-({7-[(6-amino-9H-purin-9-yl)methyl]-5-chloro-1H-indol-2-yl}methyl)-2-fluoro-6-hydroxybenzamide], the IC50 is more than 50 µM.

Take `CC(C)(C)OC(=O)N1CCC[C@@H]1C(=O)NCc1cc2cc(Cl)cc(Cn3cnc4c(N)ncnc43)c2[nH]1` [Example 124, tert-butyl (2R)-2-[({7-[(6-amino-9H-purin-9-yl)methyl]-5-chloro-1H-indol-2-yl}methyl)carbamoyl]pyrrolidine-1-carboxylate]: the IC50 worked out at 23.9 µM.

With `Nc1ncnc2c1ncn2Cc1cc(Cl)cc2cc(CNC(=O)C3CCOC3)[nH]c12` (stereo not shown) [Example 114, N-({7-[(6-amino-9H-purin-9-yl)methyl]-5-chloro-1H-indol-2-yl}methyl)tetrahydrofuran-3-carboxamide], the 50% inhibitory concentration (IC50) worked out at 8.16 µM.

As for `Cc1ccc(-c2ccc(Cn3cnc4c(N)ncnc43)c3[nH]c(CN)cc23)cc1` [Example 75, 9-{[2-(aminomethyl)-4-(4-methylphenyl)-1H-indol-7-yl]methyl}-9H-purin-6-amine], the half-maximal inhibitory concentration (IC50) was 0.89 µM.

Regarding `Cc1noc(C)c1C(=O)NCc1cc2cc(-c3ccc(C(=O)N(C)C)cc3)cc(Cn3cnc4c(N)ncnc43)c2[nH]1` [Example 176, N-({7-[(6-amino-9H-purin-9-yl)methyl]-5-[4-(dimethylcarbamoyl)phenyl]-1H-indol-2-yl}methyl)-3,5-dimethyl-1,2-oxazole-4-carboxamide], the IC50 worked out at 0.0875 µM.

Regarding `Cc1ncccc1C(=O)NCc1cc2cc(Cl)cc(Cn3cnc4c(N)ncnc43)c2[nH]1` [Example 233, N-({7-[(6-amino-9H-purin-9-yl)methyl]-5-chloro-1H-indol-2-yl}methyl)-2-methylpyridine-3-carboxamide], the half-inhibitory concentration (IC50) was 0.236 µM.

With `COc1ccc(CC(=O)NCc2cc3cc(Cl)cc(Cn4cnc5c(N)ncnc54)c3[nH]2)cc1` [Example 297, N-({7-[(6-amino-9H-purin-9-yl)methyl]-5-chloro-1H-indol-2-yl}methyl)-2-(4-methoxyphenyl)acetamide], the concentration for half-maximal inhibition (IC50) is 6.04 µM.

Turning to `Nc1ncnc2c1ncn2Cc1cc(Cl)cc2cc(CNC(=O)CCc3ccccc3)[nH]c12` [Example 291, N-({7-[(6-amino-9H-purin-9-yl)methyl]-5-chloro-1H-indol-2-yl}methyl)-3-phenylpropanamide], the half-inhibitory concentration (IC50) came to 12.9 µM.

Consider `Nc1ncnc2c1ncn2Cc1cc(Cl)cc2cc(CNC(=O)[C@H]3CCC(=O)N3)[nH]c12` [Example 118, (2R)—N-({7-[(6-amino-9H-purin-9-yl)methyl]-5-chloro-1H-indol-2-yl}methyl)-5-oxopyrrolidine-2-carboxamide], for which the IC50 came out at 18.4 µM.

Regarding `COc1cccc(CCC(=O)NCc2cc3cc(Cl)cc(Cn4cnc5c(N)ncnc54)c3[nH]2)c1` [Example 316, N-({7-[(6-amino-9H-purin-9-yl)methyl]-5-chloro-1H-indol-2-yl}methyl)-3-(3-methoxyphenyl)propanamide], the 50% inhibitory concentration (IC50) was 13 µM.

Turning to `Cn1ncc2cc(C(=O)NCc3cc4cc(Cl)cc(Cn5cnc6c(N)ncnc65)c4[nH]3)ccc21` [Example 362, N-({7-[(6-amino-9H-purin-9-yl)methyl]-5-chloro-1H-indol-2-yl}methyl)-1-methyl-1H-indazole-5-carboxamide], the IC50 came out at 0.636 µM.

For the compound `N#Cc1ccc(C(=O)NCc2cc3cc(Cl)cc(Cn4cnc5c(N)ncnc54)c3[nH]2)c(F)c1` [Example 284, N-({7-[(6-amino-9H-purin-9-yl)methyl]-5-chloro-1H-indol-2-yl}methyl)-4-cyano-2-fluorobenzamide], the half-maximal inhibitory concentration (IC50) stood at 0.0908 µM.

On to `Cn1ccnc1C(=O)NCc1cc2cc(Cl)cc(Cn3cnc4c(N)ncnc43)c2[nH]1` [Example 154, N-({7-[(6-amino-9H-purin-9-yl)methyl]-5-chloro-1H-indol-2-yl}methyl)-1-methyl-1H-imidazole-2-carboxamide], for which the IC50 was 4.77 µM.

As to `COc1cccc(-c2cc(Cn3cnc4c(N)ncnc43)c3[nH]c(CNC(=O)c4c(C)noc4C)cc3c2)c1` [Example 169, N-({7-[(6-amino-9H-purin-9-yl)methyl]-5-(3-methoxyphenyl)-1H-indol-2-yl}methyl)-3,5-dimethyl-1,2-oxazole-4-carboxamide], the IC50 was 0.0801 µM.

In the case of `NCc1cc2cc(-c3ccc(F)cc3)cc(Cn3cnc4c(N)ncnc43)c2[nH]1` [Example 26, 9-{[2-(aminomethyl)-5-(4-fluorophenyl)-1H-indol-7-yl]methyl}-9H-purin-6-amine], the 50% inhibitory concentration (IC50) was 0.474 µM.

As to `NCc1cc2cccc(Cn3cnc4c(N)ncnc43)c2[nH]1` [Example 8, 9-{[2-(aminomethyl)-1H-indol-7-yl]methyl}-9H-purin-6-amine], the IC50 was found to be 2.82 µM.

Regarding `COc1cccc(-c2ccc(Cn3cnc4c(N)ncnc43)c3[nH]c(CN)cc23)c1` [Example 79, 9-{[2-(aminomethyl)-4-(3-methoxyphenyl)-1H-indol-7-yl]methyl}-9H-purin-6-amine], the IC50 is 0.548 µM.

`Cc1cc(C(=O)NCc2cc3cc(C4=CCNCC4)cc(Cn4cnc5c(N)ncnc54)c3[nH]2)c(C)nn1` [Example 235, N-({7-[(6-amino-9H-purin-9-yl)methyl]-5-(1,2,3,6-tetrahydropyridin-4-yl)-1H-indol-2-yl}methyl)-3,6-dimethylpyridazine-4-carboxamide]: the concentration for half-maximal inhibition (IC50) was determined as 0.0492 µM.

For the compound `CC1(C(=O)NCc2cc3cc(Cl)cc(Cn4cnc5c(N)ncnc54)c3[nH]2)CC1` [Example 108, N-({7-[(6-amino-9H-purin-9-yl)methyl]-5-chloro-1H-indol-2-yl}methyl)-1-methylcyclopropanecarboxamide], the IC50 was found to be 17 µM.

For `COc1ccc(CCC(=O)NCc2cc3cc(Cl)cc(Cn4cnc5c(N)ncnc54)c3[nH]2)cc1` [Example 315, N-({7-[(6-amino-9H-purin-9-yl)methyl]-5-chloro-1H-indol-2-yl}methyl)-3-(4-methoxyphenyl)propanamide], the concentration for half-maximal inhibition (IC50) was 4.08 µM.
